In patent publication US20240285630A1, “Methods and compositions for improving exercise performance” (MEZZION PHARMA CO., LTD., priority 2021, published 2024):

Assays:
[1] = test system: adolescents with Fontan physiology; assay: FUEL Trial resting data (heart rate, blood pressure, oxygen saturation); format: in vivo, human; conditions: baseline to 26-week
Excerpt: Baseline clinical testing completed before drug initiation included a blood draw to measure brain-type natriuretic peptide (BNP) level, a cardiopulmonary exercise test (CPET) using a standardized cycle ergometer ramp protocol, a standardized echocardiogram, and an assessment of peripheral vascular function using peripheral arterial tonometry (PAT) measured by finger cuff (EndoPAT; Itamar Medical, Israel). Participants who achieved maximal effort, defined as respiratory exchange ratio (RER)≥1.10 at peak exercise during CPET, were eligible for randomization and study drug initiation. […] End-of-study clinical testing included repeat measurement of serum BNP, CPET, echocardiogram, and PAT.
The primary analysis used the intention-to-treat population to evaluate the difference in the change in the primary outcome between treatment arms. This difference was assessed with an analysis of covariance (ANCOVA) with fixed factors for ventricular morphology (single left versus single right or mixed) and treatment group, with a continuous covariate of baseline max VO2. For those without data at the 26-week visit, this value was imputed as equal to the baseline value (no change). […] Secondary outcomes of continuous data points were analyzed in the manner described for the primary outcome. […]

[2] = test system: adolescents with Fontan physiology; assay: FUEL Trial echocardiographic myocardial performance index (MPI), blood pool Doppler; format: in vivo, human
Excerpt: Generally speaking, MPI (also referred to as the Doppler-derived index or Tei Index) is a measure of ventricular systolic and diastolic function as determined by a focused echocardiogram. It combines systolic and diastolic time intervals to assess heart function. More specifically, MPI can be used to assess ventricular performance represented by a numeric value using cardiac time intervals. This numeric value equals the sum of isovolumetric contraction time (ICT) and isovolumetric relaxation time (IRT) divided by ejection time (ET) and can be determined for either the left or right ventricle. Pellett, A. A., et al.: The Tei Index: Methodology and Disease. State Values. Echocardiography: A Jrnl. of CV Ultrasound & Allied Tech. 21(7):669-672 (2004); and Ulugay, A., Tatli E.: Myocardial performance index. Anadolu Kardiyol Derg. 8(2):143-8 (April 2008), both of which are incorporated herein by reference in their entireties. In the FUEL Trial, the MPI measured the performance of the single functioning ventricle. Thus, the MPI results from the FUEL Trial were determined by velocities obtained from blood pool Doppler assessment of the inflow and outflow tract of the functioning single ventricle. In other words, the FUEL Trial MPI was determined by measuring the cardiac time intervals using pulsed-wave Doppler velocity spectra of the ventricular inflow and outflow of the single functioning ventricle.
Echocardiograms were performed by sonographers with specific training for this protocol. The primary outcome of interest was MPI using Doppler-based measures of inflow and outflow duration. The duration of inflow into the dominant ventricle and outflow across the dominant semilunar valve were measured and used to calculate MPI using the standard formula. Tei C, Ling L H, Hodge D O, et al.: New index of combined systolic and diastolic myocardial performance: a simple and reproducible measure of cardiac function-a study in normals and dilated cardiomyopathy. J Cardiol, 26(6):357-66 (1995); and Pellet A A et al.: The Tei Index: Methodology and Disease State Values. Echocardiography: A Jrnl Of CV Ultrasound & Allied Tech, 21(7):669-672 (2004). Additional tissue Doppler images were obtained and used to calculate the tissue Doppler based MPI as previously described. Harada K, Tamura M, Toyono M et al.: Comparison of the right ventricular Tei index by tissue Doppler imaging to that obtained by pulsed Doppler in children without heart disease. Am J Cardiol, 90(5):566-9 (2002).
Whenever possible, three measurements were made and the mean duration was used for the calculation.
Each subject underwent an echocardiogram at the start and finish of the 26 weeks. […] Table 3. […] The change in the MPI was determined by velocities obtained from blood pool Doppler assessment of the inflow and outflow tract of the single functioning dominant ventricle. All measurements were made by the echocardiography core lab at the Children's Hospital of Wisconsin.

## CCCOc1ccc(S(=O)(=O)NCCC2CCCN2C)cc1-c1nc2c(CCC)nn(C)c2c(=O)[nH]1 (stereo not drawn) [Udenafil, udenafil]
[1]
  Change in resting heart rate, respiratory rate, or systolic blood pressure, udenafil vs placebo: no difference
[2]; ITT population
  MPI, median of the difference Week 26 - baseline: −0.01
[2]; ITT population, ANCOVA
  MPI difference Week 26 - baseline, LS Mean Dif A − B (SE), udenafil minus placebo: −0.03 (0.014)
[2]; ITT population, ANOVA
  MPI at Week 26, LS Mean Dif A − B (SE), udenafil minus placebo: −0.04 (0.018)
[2]; ITT population, N=146
  MPI at Week 26, mean: 146: 0.42
[2]; all participants with paired data n=122, decrease shows improvement, p=0.028 vs placebo
  MPI, difference Week 26 - baseline, mean: −0.02
[2]; baseline peak VO2 <80% predicted, N=189
  MPI, difference in change (treatment - placebo): −0.04
[2]; baseline peak VO2 ≥80% predicted, N=60
  MPI, difference in change (treatment - placebo): 0.01
[2]; excluding those with baseline peak VO2 ≥80% predicted, n=94
  MPI, 26 week - baseline: −0.03
